Test system: duodenal mucosa
Experiment: Test C: duodenal mucosal alkaline secretion assay
Format: in vivo, rat
Conditions: co-administration of the AT2 receptor antagonist with title compounds
Description: Duodenal Mucosal Alkaline Secretion Assay
Compounds were exposed to the duodenal mucosa in barbiturate-anaesthetised rats prepared for in situ titration of duodenal mucosal alkaline secretion, according to the methodology described by Flemström et al in Am. J. Physiol. (1982) 243, G348.

Cc1cc(Cn2cnc3c2C[C@@H](C(=O)O)N(C(=O)C(c2ccccc2)c2ccccc2)C3)ccc1N(C)C [PD123319]
effect on the stimulation of mucosal alkalisation by the title compounds: blocked

From US8080571B2, “Tricyclic angiotensin II agonists” (Vicore Pharma AB, priority 2005, dated 2011)
